Assay results as given in ChEMBL document CHEMBL1158246, “New cytotoxic briaran diterpenes from the Formosan gorgonian Briareum sp” (1996).
≈ marks a conversion by molar mass, not a printed value.

How the values were obtained:
Assay type in all cases: functional
Settings in all cases: read-out: ED50 (the source's name)
P388 = assay: Cytotoxicity against mouse P388 cells
A549 = assay: Cytotoxicity against human A549 cells
HT-29 = assay: Cytotoxicity against human HT29 cells
KB = assay: Cytotoxicity against human KB cells

SMILES | EC50 (P388) [µg/mL] | EC50 (A549) [µg/mL] | EC50 (HT-29) [µg/mL] | EC50 (KB) [µg/mL]
CC(=O)O[C@H]1CC=C(C)[C@@H]2[C@@H](O)[C@]34O[C@]3(C)C(=O)O[C@H]4/C=C(/C)CC[C@@H](OC(C)=O)[C@@]12C | 0.28 (≈ 0.624 µM) | 10.3 (≈ 23.1 µM) | 8.27 (≈ 18.4 µM) | 0.27 (≈ 0.602 µM)
CC(=O)O[C@H]1C[C@@H]2O[C@]2(C)[C@@H]2[C@@H](O)[C@]34O[C@]3(C)C(=O)O[C@H]4/C=C(/C)CC[C@@H](OC(C)=O)[C@@]12C | 0.61 (≈ 1.31 µM) | > 50 | 6.96 (≈ 15 µM) | > 50
CC(=O)O[C@H]1CC=C(C)[C@@H]2[C@@H](OC(C)=O)[C@]34O[C@]3(C)C(=O)O[C@H]4/C=C(/C)CC[C@@H](OC(C)=O)[C@@]12C [BRIAREOLIDE H] | 3.1 (≈ 6.32 µM) | > 50 | 0.29 (≈ 0.591 µM) | > 50
CC(=O)O[C@H]1C[C@@H]2O[C@]2(C)[C@@H]2[C@@H](OC(C)=O)[C@]34O[C@]3(C)C(=O)O[C@H]4/C=C(/C)CC[C@@H](OC(C)=O)[C@@]12C | 1.59 (≈ 3.14 µM) | 17.4 (≈ 34.3 µM) | 10.1 (≈ 19.9 µM) | 24.4 (≈ 48.3 µM)
